ChEMBL document CHEMBL5236546, “Potent and Subtype-Selective Dopamine D2 Receptor Biased Partial Agonists Discovered via an Ugi-Based Approach” (J Med Chem, 2021)

How the values were obtained:
D(2) dopamine receptor = D(2) dopamine receptor (Homo sapiens, UniProt P14416)
Description: Partial agonist activity at D2 receptor (unknown origin) assessed as increase in cAMP accumulation

D(4) dopamine receptor = target: T1, D(4) dopamine receptor (Homo sapiens, UniProt P21917)
T1 sequence (P21917 whole entry): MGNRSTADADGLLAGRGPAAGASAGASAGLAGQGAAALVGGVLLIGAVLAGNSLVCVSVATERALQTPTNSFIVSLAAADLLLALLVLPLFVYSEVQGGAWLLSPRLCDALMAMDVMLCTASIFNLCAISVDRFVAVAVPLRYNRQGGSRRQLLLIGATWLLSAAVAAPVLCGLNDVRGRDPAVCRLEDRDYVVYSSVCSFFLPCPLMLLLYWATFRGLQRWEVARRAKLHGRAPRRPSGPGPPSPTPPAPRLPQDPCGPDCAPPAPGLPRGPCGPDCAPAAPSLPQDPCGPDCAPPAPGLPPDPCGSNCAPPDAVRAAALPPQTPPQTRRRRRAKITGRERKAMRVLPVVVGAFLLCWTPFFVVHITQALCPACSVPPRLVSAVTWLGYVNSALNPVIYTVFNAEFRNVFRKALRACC
Description: Partial agonist activity at human D4 receptor assessed as inhibition constant

D(3) dopamine receptor = D(3) dopamine receptor (Homo sapiens, UniProt P35462)
Chain of D(3) dopamine receptor (P35462 whole entry): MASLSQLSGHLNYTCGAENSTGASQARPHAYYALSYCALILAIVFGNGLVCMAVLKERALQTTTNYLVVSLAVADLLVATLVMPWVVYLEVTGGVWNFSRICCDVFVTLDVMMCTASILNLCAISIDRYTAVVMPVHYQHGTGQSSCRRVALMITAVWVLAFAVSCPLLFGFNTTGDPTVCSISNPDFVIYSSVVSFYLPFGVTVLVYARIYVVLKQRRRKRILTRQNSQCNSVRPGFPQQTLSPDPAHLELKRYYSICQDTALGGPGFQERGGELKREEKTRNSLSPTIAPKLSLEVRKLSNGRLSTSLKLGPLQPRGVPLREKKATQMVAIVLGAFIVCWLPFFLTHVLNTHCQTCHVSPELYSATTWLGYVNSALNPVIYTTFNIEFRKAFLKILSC
Description: Partial agonist activity at human D3 receptor assessed as inhibition constant

Chain of D(2) dopamine receptor (P14416 whole entry): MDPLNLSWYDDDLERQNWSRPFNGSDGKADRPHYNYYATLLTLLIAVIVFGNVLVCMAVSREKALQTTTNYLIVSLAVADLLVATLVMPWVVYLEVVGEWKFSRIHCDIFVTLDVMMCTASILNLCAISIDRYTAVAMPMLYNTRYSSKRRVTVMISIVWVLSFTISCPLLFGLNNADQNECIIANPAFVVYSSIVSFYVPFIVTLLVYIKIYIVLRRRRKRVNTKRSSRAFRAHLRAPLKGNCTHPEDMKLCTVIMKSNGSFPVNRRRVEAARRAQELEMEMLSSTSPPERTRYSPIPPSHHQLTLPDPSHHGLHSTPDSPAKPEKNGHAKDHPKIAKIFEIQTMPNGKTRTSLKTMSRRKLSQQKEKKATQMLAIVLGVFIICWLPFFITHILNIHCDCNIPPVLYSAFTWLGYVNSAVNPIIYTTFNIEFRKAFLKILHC

With `Cn1ccc2c(N3CCN(CCCCOc4ccc5c(c4)NC(=O)CC5)CC3)cccc21` the EC50 (D(2) dopamine receptor) was “Not Active”.

`CC1Cc2ccccc2N1C(=O)NCCCCN(C)[C@H]1Cc2cccc3[nH]c(=O)n(c23)C1` (some centres undefined) was tested, and the Ki (D(4) dopamine receptor) was “Not Active” and the Ki (D(3) dopamine receptor) was 139 nM.

`CN(C)C(=O)N[C@H]1CC[C@H](CCN2CCN(c3cccc(Cl)c3Cl)CC2)CC1` [CARIPRAZINE] was tested, and the Ki (D(4) dopamine receptor) was “Not Active”.
